Measured values from US5506102A (priority 1993, dated 1996).
pIC50: −log10 of the molar value.

What was measured:
Format in all cases: cell-based
human estrogen receptor = test: ER transcriptional activity on MMTV-ERE-LUC, CV-1 cells, ER co-expressed with PR-A
Procedure: All values were normalized for transfection efficiency by simultaneous estimation of luciferase and β-galactocidase activities. The relative luciferase activity is calculated by dividing the normalized luciferase value at a given point by that obtained in the absence of transfected receptor or ligand. Data shown represent the mean +/- the average deviation from the mean of triplicate estimations.
Experimental protocols and data calculation are as described in FIG. 11. The experiment detailed above is representative of independent assays (N>3). Data shown represent the mean +/- the average deviation from the mean of triplicate estimations.
Vegeto et al., supra. Cells were plated into 96-well tissue culture plates. The vector DNA was introduced into the CV-1 cells using calcium phosphate coprecipitation as described herein. More specifically, 20 μg of DNA/ml of transfection buffer were used in each transfection. Each transfection mix included 0.5 μg of pRST7hER, 9.5 μg of MMTV-ERE-LUC, 5 μg of pCH110, (which contains the gene for β-galactosidase) as an internal control and 5 μg of PGEM4 DNA as a carrier. Depending on the experiment, 0.1 μg pSVhPR-A or pSVhPR-B and an amount of pSVXV2neo (Dr. Bert O'Malley, Baylor College of Medicine) to bring the total amount of DNA to 20 μg was added. The concentration of pXVhPR-A vector chosen was determined by performing the experiment at several different concentrations of vector, and then using that concentration that was optimal for transcriptional readout. The concentration of pSVhPR-B vector was chosen based upon the amount required to give an identical amount of immunoreactive PR-A and PR-B. After transfections using a Biomek 1000 automated laboratory workstation, the cells were incubated with the precipitate for 6 hours. Cells were washed with PBS and incubated for 40 hours with or without hormones as indicated. Cell extracts were prepared as previously described herein and assayed for luciferase (LUC) and β-galactosidase activities. The Normalized LUC activity was calculated by dividing the raw luciferase (×10^4) units for each point by the β-galactosidase activity [(OD415 nm ×10^5)/time min.] at that point.

PR-A = target: T1, PR-A (Homo sapiens, UniProt P06401); test: PR-A transactivation of PRE2 tk-LUC; set-up: PRE2 tk-LUC in CV-1
T1 sequence (P06401 165-933): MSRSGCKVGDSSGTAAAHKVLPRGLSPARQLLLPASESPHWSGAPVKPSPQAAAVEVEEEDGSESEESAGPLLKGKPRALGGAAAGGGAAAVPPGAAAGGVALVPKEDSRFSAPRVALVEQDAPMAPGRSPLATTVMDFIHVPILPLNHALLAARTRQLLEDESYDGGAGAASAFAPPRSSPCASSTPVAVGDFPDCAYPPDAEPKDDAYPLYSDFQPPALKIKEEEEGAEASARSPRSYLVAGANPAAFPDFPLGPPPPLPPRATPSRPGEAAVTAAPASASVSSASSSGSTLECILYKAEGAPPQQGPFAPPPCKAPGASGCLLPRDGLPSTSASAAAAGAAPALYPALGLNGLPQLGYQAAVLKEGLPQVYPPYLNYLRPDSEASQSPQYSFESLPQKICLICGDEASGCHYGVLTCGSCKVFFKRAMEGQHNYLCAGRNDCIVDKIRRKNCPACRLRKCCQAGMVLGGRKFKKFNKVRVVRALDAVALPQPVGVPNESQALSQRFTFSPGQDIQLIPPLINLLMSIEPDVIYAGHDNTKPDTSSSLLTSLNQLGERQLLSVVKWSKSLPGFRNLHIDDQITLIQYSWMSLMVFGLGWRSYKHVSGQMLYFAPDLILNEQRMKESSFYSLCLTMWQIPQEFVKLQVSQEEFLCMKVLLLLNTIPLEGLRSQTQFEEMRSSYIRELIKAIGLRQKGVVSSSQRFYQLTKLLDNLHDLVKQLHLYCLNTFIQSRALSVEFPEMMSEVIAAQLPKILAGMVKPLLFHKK
Procedure: FIGS. 4A-4B are a series of graphs showing CV-1 ([…]) or HepG2 (FIG. 4B) cells that were transiently transfected with either […] of phPR-B or phPR-A alone, or phPR-B in the presence of increasing concentrations of phPR-A, together with 5 µg/ml of the PRE2 tk-LUC reporter and 5 µg/ml of pCH110 as an internal control. HeLa cells (FIG. 4C) were transfected with either phPR-B or phPR-A together with 5 µg/ml of the pTAT2950 reporter and 5 µg/ml of pCH110 as an internal control. […] The relative luciferase activity is calculated by dividing the normalized luciferase value at a given point by that obtained in the absence of transfected receptor or ligand. The data shown represent the mean +/- average deviation from the mean of triplicate estimations;
Both reporter plasmids were digested with XhoI and HindIII restriction enzymes and a 6.7 Kb fragment from MMTV-LUC and a 0.12 Kb fragment from PRE2 tk-CAT were isolated and ligated, resulting in a plasmid called PRE2 tk-LUC.
Cells were seeded in 12-well, 96-well or 10 cm tissue culture plates. […] 20 μg of DNA/ml of transfection buffer were used in each transfection reaction. […]

[1] = tested on: glucocorticoid receptor (GR); test: GR transcriptional activity on MMTV-LUC, CV-1 cells, GR co-expressed with PR-B; settings: progesterone and dexamethasone, FIG. 5B
Procedure: Cells were seeded in 12-well, 96-well or 10 cm tissue culture plates. […] 20 μg of DNA/ml of transfection buffer were used in each transfection reaction. In this mix, the concentration of the luciferase plasmids and that of the internal control plasmid pCH110 (Pharmacia, Inc.), which contains the gene for the β-galactosidase enzyme, remained constant ([…] of each plasmid DNA), while the receptor plasmid concentration varied as indicated for each experiment. Different amounts of receptor parental plasmid, pSV2-neo (Dr. Bert O'Malley, Baylor College of Medicine, Houston, Tex.) was included to keep constant the total amount of the SV40 enhancer vectors. pGEM4 plasmid DNA (Promega Biotech, Madison, Wis.) was added to balance the total DNA concentration to 20 g/reaction. For the 96-well plate experiments, transfections were performed on a Biomek 1000 Automated Laboratory Workstation (Beckman Instruments, Fullerton, Calif.).
Cells were seeded 24 hours prior to transfection in the fiat-bottom tissue culture plates ([…]) in phenol red-free DMEM containing 10% FCS. […] Using calcium phosphate co-precipitation, DNA solution was added dropwise with vortexing into an equal volume of 2X HBS pH 6.9 (280 mM NaCl. 50 mM HEPES, 1.5 mM Na2 HPO4) and precipitates were allowed to form for 20 minutes. […]

SMILES	pIC50 (human estrogen receptor; 10^-7 M 17-β-estradiol, read-out: half maximal inhibition (IC50) of ER in the presence of hPR-A)	efficacy compared to the pure anti-estrogen ICI-164,384 (human estrogen receptor; PR-A co-expressed, 100% = 10^-7 M 17-β-estradiol + 10^-6 M ICI-164,384, FIG. 12)	PR-A transcriptional activity on PRE2 tk-LUC (PR-A; CV-1, 10^-7 M progesterone, FIG. 4A)	PR-A transcriptional activity on PRE2 tk-LUC (PR-A; HepG2, 10^-7 M progesterone, FIG. 4B)	maximal inhibition of ER activation by 17-β-estradiol (human estrogen receptor; 10 nM progesterone, hPR-A co-expressed, 10^-7 M 17β-estradiol, FIG. 11C) [%]	effect of PR-B co-expression on GR function [1]
CC#C[C@]1(O)CC[C@H]2[C@@H]3CCC4=CC(=O)CCC4=C3[C@@H](c3ccc(C(C)=O)cc3)C[C@@]21C [ZK112993]	9.30	greater than 80%				
CC(=O)[C@H]1CC[C@H]2[C@@H]3CCC4=CC(=O)CC[C@]4(C)[C@H]3CC[C@]12C [progesterone]			transcriptionally inactive	activator of transcription	55	minimal effects on GR function
